These are literature values, as cited in patent US20040092491A1, “Method of treating sepsis-induced ARDS” (The Research Foundation of State University of New York, priority 2002, published 2004).

In one data set the test system is neutrophil elastase. To be noted: LPS-induced acute lung injury, guinea pig; cited from earlier work.
The conditions of data set [1]: single dose of two 100 mg minocycline HCl tablets, adult humans; cited from earlier work.
The conditions of data set [2]: 250 mg every six hours over a twenty-four hour period; cited from earlier work.
The subject of the next data set is microbes. The note with it: based on steady-state pharmacokinetics; cited from earlier work.

Structures can show the parent of a compound that is named as a salt.

As to `CC(C)(C)C(=O)Oc1ccc(S(=O)(=O)Nc2ccccc2C(=O)NCC(=O)O)cc1` [ONO-5046, N-[2-[4-(2,2-dimethylpropionyloxy)-phenylsulfonylamino]benzoyl]aminoacetic acid], the Neutrophil elastase activity result with neutrophil elastase is recorded as “inhibits”.
Turning to `CN(C)c1ccc(O)c2c1C[C@H]1C[C@H]3[C@H](N(C)C)C(O)=C(C(N)=O)C(=O)[C@@]3(O)C(O)=C1C2=O` [minocycline HCl], the “Average minocycline serum level” value in data set [1] was 2.24 µg/mL.
For the compound `CN(C)[C@@H]1C(O)=C(C(N)=O)C(=O)[C@@]2(O)C(O)=C3C(=O)c4c(O)cccc4[C@@](C)(O)[C@H]3C[C@@H]12` [tetracycline HCl], the Peak plasma concentration entry in data set [2] is given as “approximately 3 μg/ml”.
For `CN(C)[C@@H]1C(O)=C(C(N)=O)C(=O)[C@@]2(O)C(O)=C3C(=O)c4c(O)cccc4[C@@](C)(O)[C@H]3C[C@@H]12` [tetracycline, Tetracycline], the “Plasma antibiotic threshold level” value in the data set with microbes is 0.5 µg/mL.
